Measured values: article PMC6522941, “Design, synthesis, and anticancer evaluation of novel quinoline derivatives of ursolic acid with hydrazide, oxadiazole, and thiadiazole moieties as potent MEK inhibitors” (Journal of Enzyme Inhibition and Medicinal Chemistry, 2019)

Experiments:
MDA-MB-231 cells = test: MTT cytotoxic assay, MDA-MB-231; format: cell-based, human
Experimental: (§1) Human breast cancer cell line (MDA-MB-231), cervical carcinoma cell line (HeLa), the liver cancer cell line (SMMC-7721) and normal hepatocyte cell line (QSG-7701) were maintained in Dulbecco Modified Eagle Medium (DMEM) containing 4.0 mM L-Glutamine and 4500 mg/L Glucose supplemented with 10% (v/v) foetal bovine serum (FBS) and 100 U/mL penicillin/streptomycin at 37 °C in humidified atmosphere of 5% CO2 and 95% air.
(§2) Exponentially growing MDA-MB-231, Hela and SMMC-7721 cell lines were seeded into 96-well plate for 100 μL and treated with different concentrations of the synthetic compounds for 72 h, and then 10 μL of MTT (10 mg/mL) was added and incubation for 3 ∼ 4 h at 37 °C. The generated purple formazan crystals from viable can be dissolved by adding 100 μL DMSO. The plates were swirled gently for 5 min and quantified by measuring the OD of the plates at the wavelength of 540 nm. Each concentration was repeated in three wells and the same experimental condition was provided for all compounds. The results were expressed as IC50 values with standard deviations, which was defined as the concentration at which 50% survival of cells was discerned. Etoposide was co-assayed as positive control.
(§3) The in vitro cytotoxic activity of derivatives 3a–d, 4a–h, 5a–h, and 6a–h were evaluated by MTT assay against human breast cancer cell line (MDA-MB-231), cervical carcinoma cell line (HeLa), hepatocarcinoma cell line (SMMC-7721) and human normal hepatocyte cell line (QSG-7701). The anticancer drug etoposide was co-assayed as the positive control. All tested compounds were dissolved in DMSO and the stock solutions were diluted by DMEM medium before treatment of the cultured cells.

HeLa cells = test: MTT cytotoxic assay, HeLa; format: cell-based; conditions: Homo sapiens, 72 h
Experimental: as §1, §2, §3

SMMC-7721 cells = test: MTT cytotoxic assay, SMMC-7721; format: cell-based; conditions: Homo sapiens, 72 h
Experimental: as §1, §2, §3

QSG-7701 cells = test: MTT cytotoxic assay, normal hepatocyte QSG-7701; format: cell-based, human; conditions: for IC50: Homo sapiens, QSG7701, MTT, normal hepatocyte cell line; for Selectivity: IC50 (QSG-7701)/IC50 (HeLa)
Experimental: as §1, §2, §3

MEK1 = target: T1, MEK1 (Homo sapiens, UniProt Q02750); test: In vitro MEK1 kinase assay (ADP-Glo); format: biochemical; conditions: recombinant GST-MEK1, GST-ERK2 (inactive) substrate, 10 μM ATP
T1 construct: purchased Carna Biosciences, Kobe, Japan
T1 sequence (Q02750 whole entry): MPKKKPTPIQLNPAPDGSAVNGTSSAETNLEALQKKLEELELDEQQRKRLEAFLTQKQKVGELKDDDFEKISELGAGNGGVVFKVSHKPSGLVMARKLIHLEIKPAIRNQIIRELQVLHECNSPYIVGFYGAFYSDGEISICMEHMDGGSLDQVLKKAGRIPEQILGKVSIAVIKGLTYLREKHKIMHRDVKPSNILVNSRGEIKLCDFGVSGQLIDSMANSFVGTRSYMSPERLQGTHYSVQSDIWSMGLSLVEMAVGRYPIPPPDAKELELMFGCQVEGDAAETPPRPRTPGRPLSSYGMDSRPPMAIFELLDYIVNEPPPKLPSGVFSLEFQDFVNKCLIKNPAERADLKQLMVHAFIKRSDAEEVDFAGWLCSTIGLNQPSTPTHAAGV
Experimental: An in vitro kinase assay of MEK1 was performed using ADP-Glo kinase assay (Promega, Madison, WI, USA) according to the manufacturer’s protocol. […] Reactions were stopped by adding 5 μL of ADP-Glo reagent to each well. After incubating at 22 °C for 40 min, 10 μL of the kinase detection reagent was added and the plates were incubated for another 30 min at 22 °C in the dark. The reaction mixture was analysed by EnSpire (PerkinElmer, Waltham, MA, USA).
The Raf/MEK/ERK pathway is the downstream of Ras activation, and the abnormal expression or phosphorylation of the associated proteins is essential for cancer cell proliferation. In this pathway, MEK kinase is an important anticancer target because of its key roles in regulating the cancer cell apoptosis and oncogenic transformation[51]^,[52]. Among MEK proteins, MEK1 and MEK2 are known as substrate-specific kinases which phosphorylate their downstream kinase ERK1/2.

| Compound | IC50 (MDA-MB-231 cells; Homo sapiens, MDA-MB-231, 72 h) [µM] | IC50 (HeLa cells) [µM] | IC50 (SMMC-7721 cells) [µM] | IC50 (QSG-7701 cells) [µM] | IC50 (MEK1) [µM] | Selectivity (QSG-7701 cells) | IC50 (MDA-MB-231 cells; 72 h) [µM] |
| --- | --- | --- | --- | --- | --- | --- | --- |
| C[C@@H]1CC[C@]2(C(=O)O)CC[C@]3(C)C(=CCC4[C@@]5(C)Cc6cc7ccccc7nc6C(C)(C)C5CC[C@]43C)C2[C@H]1C (some centres unmarked) [Compound 3a] | 0.75 ± 0.05 | 0.37 ± 0.04 | 13.4 ± 0.08 | > 50 | 18.6 |  |  |
| COc1ccc2nc3c(cc2c1)CC1(C)C(CCC2(C)C1CC=C1C4C(C)C(C)CCC4(C(=O)O)CCC12C)C3(C)C (centres unmarked) [Compound 3b] | 0.61 ± 0.07 | 0.36 ± 0.05 | 12.49 ± 0.08 | > 50 | 3.59 | 142.3 |  |
| C[C@@H]1CC[C@]2(C(=O)O)CC[C@]3(C)C(=CCC4[C@@]5(C)Cc6cc7cc(F)ccc7nc6C(C)(C)C5CC[C@]43C)C2[C@H]1C (some centres unmarked) [Compound 3c] | 0.9 ± 0.1 | 1.87 ± 0.03 | 13.34 ± 0.13 | > 50 | 0.37 | 37.0 |  |
| C[C@@H]1CC[C@]2(C(=O)O)CC[C@]3(C)C(=CCC4[C@@]5(C)Cc6cc7cc(Cl)ccc7nc6C(C)(C)C5CC[C@]43C)C2[C@H]1C (some centres unmarked) [Compound 3d] | 1.36 ± 0.03 | 1.22 ± 0.08 | 14.62 ± 0.05 | > 50 | 0.82 | 59.5 |  |
| CC(=O)NNC(=O)[C@]12CC[C@@H](C)[C@H](C)C1C1=CCC3[C@@]4(C)Cc5cc6ccccc6nc5C(C)(C)C4CC[C@@]3(C)[C@]1(C)CC2 (some centres unmarked) [Compound 4a, N-[ursa-12-en-(2,3)-quinoline-28-oyl]-acetohydrazide] | 1.84 ± 0.13 | 1.18 ± 0.03 | 17.48 ± 0.1 | 40.6 ± 2.89 | 37.3 | 34.4 |  |
| COc1ccc2nc3c(cc2c1)CC1(C)C(CCC2(C)C1CC=C1C4C(C)C(C)CCC4(C(=O)NNC(C)=O)CCC12C)C3(C)C (centres unmarked) [Compound 4b, N-[5′-methoxy-ursa-12-en-(2,3)-quinoline-28-oyl]-acetohydrazide] | 1.42 ± 0.14 | 0.83 ± 0.09 | 17.65 ± 0.11 | 45.2 ± 2.82 | 10.9 | 54.5 |  |
| CC(=O)NNC(=O)[C@]12CC[C@@H](C)[C@H](C)C1C1=CCC3[C@@]4(C)Cc5cc6cc(F)ccc6nc5C(C)(C)C4CC[C@@]3(C)[C@]1(C)CC2 (some centres unmarked) [Compound 4c, N-[5′-fluoro-ursa-12-en-(2,3)-quinoline-28-oyl]-acetohydrazide] | 1.16 ± 0.06 | 0.99 ± 0.05 | 19.41 ± 0.12 | > 50 | 0.072 | 63.8 |  |
| Cc1nnc([C@]23CC[C@@H](C)[C@H](C)C2C2=CCC4[C@@]5(C)Cc6cc7ccccc7nc6C(C)(C)C5CC[C@@]4(C)[C@]2(C)CC3)o1 (some centres unmarked) [Compound 5a, N-2-[ursa-12-en-(2,3)-quinoline-28-oyl]-5-methyl-1,3,4-oxadiazole] | < 10 | 19.4 ± 0.7 | > 50 | > 50 | > 50 | 4.3 | 5.32 ± 0.13 |
| COc1ccc2nc3c(cc2c1)CC1(C)C(CCC2(C)C1CC=C1C4C(C)C(C)CCC4(c4nnc(C)o4)CCC12C)C3(C)C (centres unmarked) [Compound 5b, N-[5′-methoxy-ursa-12-en-(2,3)-quinoline-28-oyl]-5-methyl-1,3,4-oxadiazole] | 12.25 ± 0.12 | 16.8 ± 0.34 | > 50 | > 50 |  | 5.6 |  |
| Cc1nnc([C@]23CC[C@@H](C)[C@H](C)C2C2=CCC4[C@@]5(C)Cc6cc7cc(F)ccc7nc6C(C)(C)C5CC[C@@]4(C)[C@]2(C)CC3)o1 (some centres unmarked) [Compound 5c, N-[5′-fluoro-ursa-12-en-(2,3)-quinoline-28-oyl]-5-methyl-1,3,4-oxadiazole] | 13.2 ± 0.58 | 33.8 ± 0.95 | > 50 | > 50 |  | 3.6 |  |
| Cc1nnc([C@]23CC[C@@H](C)[C@H](C)C2C2=CCC4[C@@]5(C)Cc6cc7cc(Cl)ccc7nc6C(C)(C)C5CC[C@@]4(C)[C@]2(C)CC3)o1 (some centres unmarked) [Compound 5d, N-[5′-chloro-ursa-12-en-(2,3)-quinoline-28-oyl]-5-methyl-1,3,4-oxadiazole] | 11 ± 0.98 |  | > 50 | > 50 | > 50 | 20.1 |  |
| Cc1nnc([C@]23CC[C@@H](C)[C@H](C)C2C2=CCC4[C@@]5(C)Cc6cc7ccccc7nc6C(C)(C)C5CC[C@@]4(C)[C@]2(C)CC3)s1 (some centres unmarked) [Compound 6a] | 18.8 ± 1.38 | 27.3 ± 1.91 | > 50 | > 50 |  | 4.8 |  |
| COc1ccc2nc3c(cc2c1)CC1(C)C(CCC2(C)C1CC=C1C4C(C)C(C)CCC4(c4nnc(C)s4)CCC12C)C3(C)C (centres unmarked) [Compound 6b] | 15.7 ± 2.01 | 12.8 ± 1.32 | > 50 | > 50 |  | 8.5 |  |
| Cc1nnc([C@]23CC[C@@H](C)[C@H](C)C2C2=CCC4[C@@]5(C)Cc6cc7cc(F)ccc7nc6C(C)(C)C5CC[C@@]4(C)[C@]2(C)CC3)s1 (some centres unmarked) [Compound 6c] | 31.6 ± 2.7 | > 50 | > 50 | > 50 |  | 2.8 |  |
| Cc1nnc([C@]23CC[C@@H](C)[C@H](C)C2C2=CCC4[C@@]5(C)Cc6cc7cc(Cl)ccc7nc6C(C)(C)C5CC[C@@]4(C)[C@]2(C)CC3)s1 (some centres unmarked) [Compound 6d] | 15.8 ± 1.32 | 10.9 ± 1.07 | > 50 | > 50 | > 50 | 5.7 |  |
| CCCCc1nnc([C@]23CC[C@@H](C)[C@H](C)C2C2=CCC4[C@@]5(C)Cc6cc7ccccc7nc6C(C)(C)C5CC[C@@]4(C)[C@]2(C)CC3)s1 (some centres unmarked) [Compound 6e, N-2-[ursa-12-en-(2,3)-quinoline-28-oyl]-5-butyl-1,3,4-thiadiazole] | > 50 | > 50 | > 50 |  |  |  |  |
| CCCCc1nnc([C@]23CC[C@@H](C)[C@H](C)C2C2=CCC4[C@@]5(C)Cc6cc7cc(OC)ccc7nc6C(C)(C)C5CC[C@@]4(C)[C@]2(C)CC3)s1 (some centres unmarked) [Compound 6f, N-2-[5′-methoxy-ursa-12-en-(2,3)-quinoline-28-oyl]-5-butyl-1,3,4-thiadiazole] | > 50 | > 50 | > 50 |  |  |  |  |
| CCCCc1nnc([C@]23CC[C@@H](C)[C@H](C)C2C2=CCC4[C@@]5(C)Cc6cc7cc(Cl)ccc7nc6C(C)(C)C5CC[C@@]4(C)[C@]2(C)CC3)s1 (some centres unmarked) [Compound 6h, N-2-[5′-chloro-ursa-12-en-(2,3)-quinoline-28-oyl]-5-butyl-1,3,4-thiadiazole] | > 50 | > 50 | > 50 |  |  |  |  |
| COc1cc([C@@H]2c3cc4c(cc3[C@@H](O[C@@H]3O[C@@H]5CO[C@@H](C)O[C@H]5[C@H](O)[C@H]3O)[C@H]3COC(=O)[C@H]23)OCO4)cc(OC)c1O [Etoposide, reference compound] | 5.26 ± 1.21 | 2.98 ± 0.42 | 3.48 ± 0.35 | 28.8 ± 3.28 |  | 9.6 |  |
